Experimental data published in BindingDB's records for doi:10.1016/j.ejmech.2021.113775 (Laboratory For Marine Drugs and Bioproducts of Qingdao …, 2021).

Molecular target: Sphingosine 1-phosphate receptor 2 (Homo sapiens, UniProt O95136)
Test: Binding affinity to S1PR2 (unknown origin) assessed as dissociation constant measured for 60 secs by surface plasmon resonance assay

Sequence of Sphingosine 1-phosphate receptor 2 (O95136 whole entry): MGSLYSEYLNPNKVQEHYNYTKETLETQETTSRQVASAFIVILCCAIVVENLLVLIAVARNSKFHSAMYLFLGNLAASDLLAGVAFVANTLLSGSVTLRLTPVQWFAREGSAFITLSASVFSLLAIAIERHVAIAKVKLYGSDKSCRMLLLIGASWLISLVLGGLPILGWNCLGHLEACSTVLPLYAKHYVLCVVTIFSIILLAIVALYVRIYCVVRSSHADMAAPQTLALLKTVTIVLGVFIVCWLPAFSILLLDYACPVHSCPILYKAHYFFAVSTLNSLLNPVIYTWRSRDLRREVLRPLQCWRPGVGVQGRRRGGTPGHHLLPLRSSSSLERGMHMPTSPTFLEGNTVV

| koff [s⁻¹] | Structure (SMILES) |
| --- | --- |
| 0.312 | COc1c(Cl)cc(NC(=O)Nc2cc(Cl)nc(Cl)c2)cc1Cl |
| 0.102 | CCOc1cc(NC(=O)Nc2cc(Cl)nc(Cl)c2)cc(Cl)n1 |
| 0.179 | O=C(Nc1cc(Cl)nc(Cl)c1)Nc1cc(Cl)nc(OC2CCCC2)c1 |
| 0.116 | O=C(Nc1cc(Cl)nc(Cl)c1)Nc1cc2ccccn2n1 |
| 0.219 | COc1cc(NC(=O)Nc2cc(Cl)nc(Cl)c2)cc(Cl)n1 |
| 0.119 | CC(C)Oc1cc(NC(=O)Nc2cc(Cl)nc(Cl)c2)cc(Cl)n1 |
| 0.236 | CNc1cc(C)nc(NNC(=O)Nc2cc(Cl)nc(Cl)c2)n1 |

The next lines start with the molecule.

| Structure (SMILES) | koff [s⁻¹] |
| --- | --- |
| O=C(Nc1cc(Cl)cc(Cl)c1)Nc1cc(Cl)nc(Cl)c1 | 0.116 |
| Cc1cc(NC(=O)Nc2cc(Cl)nc(Cl)c2)cc(C)n1 | 0.146 |
| CN(C)c1nc(NNC(=O)Nc2cc(Cl)nc(Cl)c2)nc2c1ccn2C | 0.102 |
| O=C(Nc1ccnc(Cl)c1)Nc1cc(Cl)nc(Cl)c1 | 0.201 |
| Cc1nn(C)c2nc(NNC(=O)Nc3cc(Cl)nc(Cl)c3)cc(C(C)C)c12 | 0.161 |
| O=C(NNc1nc(N2CCOCC2)c2ccn(C3CC3)c2n1)Nc1cc(Cl)nc(Cl)c1 | 0.133 |
| O=C(NNc1nc(Nc2ccccc2)nc(N2CCCC2)n1)Nc1cc(Cl)nc(Cl)c1 | 0.133 |
| Cc1cc(NC(=O)Nc2cc(Cl)nc(Cl)c2)n(C)n1 | 0.177 |
| Cn1ccc2c(-c3ccccc3)nc(NNC(=O)Nc3cc(Cl)nc(Cl)c3)nc21 | 0.136 |
| O=C(Nc1cc(Cl)nc(Cl)c1)Nc1cc2ccc(-c3ccccc3)cn2n1 | 0.201 |
| CN1CCN(C(=O)Nc2cc(Cl)nc(Cl)c2)CC1 | 0.106 |
| O=C(Nc1cc(Cl)nc(Cl)c1)Nc1cc(Cl)nc(Cl)c1 | 0.697 |
| COc1ccc(-c2ccc3cc(NC(=O)Nc4cc(Cl)nc(Cl)c4)nn3c2)cc1 | 0.112 |
